Data as given in patent US5840684A, “Glycopeptide antibiotic derivatives” (Eli Lilly and Company, priority 1995, dated 1998).
Values after ≈ are worked out from the molar mass of the structure shown.

Assays:
[1] = system: Streptococcus pyogenes C203; test: broth micro-dilution MIC; type: cell-based
Description: (§1) The MIC's were determined using a standard broth micro-dilution assay.

[2] = system: Staphylococcus aureus SA1199A; test: broth micro-dilution MIC; type: cell-based
Description: as §1

[3] = system: Staphylococcus aureus SA1199; test: broth micro-dilution MIC; type: cell-based
Description: as §1

[4] = system: Staphylococcus aureus 447; test: broth micro-dilution MIC; type: cell-based
Description: as §1

[5] = system: Staphylococcus aureus 491; test: broth micro-dilution MIC; type: cell-based
Description: as §1

[6] = system: Staphylococcus aureus X778; test: broth micro-dilution MIC; type: cell-based
Description: as §1

[7] = system: Staphylococcus aureus X400; test: broth micro-dilution MIC; type: cell-based
Description: as §1

[8] = system: Staphylococcus aureus 489; test: broth micro-dilution MIC; type: cell-based
Description: as §1

[9] = system: Staphylococcus aureus 446; test: broth micro-dilution MIC; type: cell-based
Description: as §1

[10] = system: Entercoccus faecium 180-1; test: broth micro-dilution MIC; type: cell-based
Description: as §1

Entercoccus faecium 276 = test: broth micro-dilution MIC; type: cell-based
Description: as §1

[11] = system: Staphylococcus aureus SA1199B; type: cell-based
Description: as §1

[12] = system: Staphylococcus aureus S13E; type: cell-based
Description: as §1

[13] = system: vancomycin-resistant enterococci; test: broth micro-dilution, mean geometric MIC; type: cell-based, Enterococcus faecium and Enterococcus faecalis; details: enterococci, 24-hour incubation
[14] = system: Streptococcus pneumoniae P1; test: broth micro-dilution MIC; type: cell-based
Description: (§2) The formula I compounds have in vitro and in vivo activity against Gram-positive pathogenic bacteria. The MIC's were determined using a standard broth micro-dilution assay.

[15] = system: Haemophilus influenzae RD; test: broth micro-dilution MIC; type: cell-based; details: Haemophilus influenzae RD
Description: as §2

[16] = system: Staphylococcus epidermidis 270; test: broth micro-dilution MIC; type: cell-based
Description: as §2

[17] = system: Staphylococcus haemolyticus 415; test: broth micro-dilution MIC; type: cell-based
Description: as §2

[18] = system: Staphylococcus haemolyticus 105; test: broth micro-dilution MIC; type: cell-based
Description: as §2

Escherichia coli EC14 = test: broth micro-dilution MIC; type: cell-based
Description: as §2

Entercoccus faecium 180 = test: broth micro-dilution MIC; type: cell-based; details: Entercoccus faecium 180
Description: as §2

[19] = system: Enterococcus gallinarum 245; test: broth micro-dilution MIC; type: cell-based; details: Enterococcus gallinarum 245
Description: as §2

Entercoccus faecium 2041 = test: broth micro-dilution MIC; type: cell-based; details: Entercoccus faecium 2041
Description: as §2

[20] = system: vancomycin-susceptible enterococci; test: broth micro-dilution, mean geometric MIC; type: cell-based, Enterococcus faecium and Enterococcus faecalis; details: enterococci, 24-hour incubation

| SMILES | MIC [1] [µg/mL] | MIC [2] [µg/mL] | MIC [3] [µg/mL] | MIC [4] [µg/mL] | MIC [5] [µg/mL] | MIC [6] [µg/mL] | MIC [7] [µg/mL] | MIC [8] [µg/mL] | MIC [9] [µg/mL] | MIC [10] [µg/mL] | MIC (Entercoccus faecium 276) [µg/mL] | MIC [11] [µg/mL] | MIC [12] [µg/mL] | mean geometric MIC, Vancomycin Resistant Strains [13] [µg/mL] | MIC [14] [µg/mL] | MIC [15] [µg/mL] | MIC [16] [µg/mL] | MIC [17] [µg/mL] | MIC [18] [µg/mL] | MIC (Escherichia coli EC14) [µg/mL] | other results |
| --- | --- | --- | --- | --- | --- | --- | --- | --- | --- | --- | --- | --- | --- | --- | --- | --- | --- | --- | --- | --- | --- |
| CC(C)CC(C(=O)NC1C(=O)NC(CC(N)=O)C(=O)NC2C(=O)NC3C(=O)NC(C(=O)NC(C(=O)O)c4cc(O)cc(O)c4-c4cc3ccc4O)C(OC3CC(C)(NCc4ccc(-c5ccccc5)cc4)C(O)C(C)O3)c3ccc(c(Cl)c3)Oc3cc2cc(c3OC2OC(CO)C(O)C(O)C2OC2CC(C)(NCc3ccc(-c4ccccc4)cc3)C(O)C(C)O2)Oc2ccc(cc2Cl)C1O)N(C)Cc1ccc(-c2ccccc2)cc1 (stereo not drawn) [Compound 249] | 0.5 (≈ 0.239 µM) | 8 (≈ 3.83 µM) | > 64 | > 64 | 32 (≈ 15.3 µM) | > 64 | > 64 | > 64 | 64 (≈ 30.6 µM) | 4 (≈ 1.91 µM) | > 64 | > 64 | > 64 | 11 | 1 (≈ 0.478 µM) | > 64 | 32 (≈ 15.3 µM) | > 64 | > 64 | > 64 | MIC (Entercoccus faecium 180): 16 µg/mL (≈ 7.65 µM); MIC [19]: > 64 µg/mL; MIC (Entercoccus faecium 2041): > 64 µg/mL; mean geometric MIC, Vancomycin Sensitive Strains [20]: 3.5 µg/mL |
| CNC(CC(C)C)C(=O)NC1C(=O)NC(CC(N)=O)C(=O)NC2C(=O)NC3C(=O)NC(C(=O)NC(C(=O)O)c4cc(O)cc(O)c4-c4cc3ccc4O)C(OC3CC(C)(NCc4c5ccccc5c(C)c5ccccc45)C(O)C(C)O3)c3ccc(c(Cl)c3)Oc3cc2cc(c3OC2OC(CO)C(O)C(O)C2OC2CC(C)(NCc3c4ccccc4c(C)c4ccccc34)C(O)C(C)O2)Oc2ccc(cc2Cl)C1O (stereo not drawn) [Compound 283] | ≤ 0.06 | 4 (≈ 2 µM) | 32 (≈ 16 µM) | 32 (≈ 16 µM) | 4 (≈ 2 µM) | 8 (≈ 4 µM) | 16 (≈ 8 µM) | 8 (≈ 4 µM) | 16 (≈ 8 µM) | 0.125 (≈ 0.0625 µM) | 16 (≈ 8 µM) | 32 (≈ 16 µM) | 4 (≈ 2 µM) | 32 | ≤ 0.06 | > 64 | 16 (≈ 8 µM) | 32 (≈ 16 µM) | > 64 | > 64 | MIC (Entercoccus faecium 180): 4 µg/mL (≈ 2 µM); MIC [19]: 32 µg/mL (≈ 16 µM); MIC (Entercoccus faecium 2041): 2 µg/mL (≈ 0.999 µM); mean geometric MIC, Vancomycin Sensitive Strains [20]: 1.7 µg/mL |
| CNC(CC(C)C)C(=O)NC1C(=O)NC(CC(N)=O)C(=O)NC2C(=O)NC3C(=O)NC(C(=O)NC(C(=O)O)c4cc(O)cc(O)c4-c4cc3ccc4O)C(OC3CC(C)(NCc4ccc(-c5ccc(Cl)cc5)cc4)C(O)C(C)O3)c3ccc(c(Cl)c3)Oc3cc2cc(c3OC2OC(CO)C(O)C(O)C2OC2CC(C)(NCc3ccc(-c4ccc(Cl)cc4)cc3)C(O)C(C)O2)Oc2ccc(cc2Cl)C1O.O=C(O)C(F)(F)F (stereo not drawn) [Compound 254] | 0.5 | 0.5 | 8 | 16 | 1 | 4 | 8 | 16 | 32 | 0.25 | 8 | 16 | 32 | 2 | ≤ 0.06 | > 64 | 8 | 16 | 16 | > 64 | MIC (Entercoccus faecium 180): 0.25 µg/mL; MIC [19]: 16 µg/mL; MIC (Entercoccus faecium 2041): 4 µg/mL; mean geometric MIC, Vancomycin Sensitive Strains [20]: 0.5 µg/mL |
| CC(C)CC(C(=O)NC1C(=O)NC(CC(N)=O)C(=O)NC2C(=O)NC3C(=O)NC(C(=O)NC(C(=O)O)c4cc(O)cc(O)c4-c4cc3ccc4O)C(OC3CC(C)(N)C(O)C(C)O3)c3ccc(c(Cl)c3)Oc3cc2cc(c3OC2OC(CO)C(O)C(O)C2OC2CC(C)(NCc3ccc(Oc4ccc([N+](=O)[O-])cc4)cc3)C(O)C(C)O2)Oc2ccc(cc2Cl)C1O)N(C)Cc1ccc(Oc2ccc([N+](=O)[O-])cc2)cc1 (stereo not drawn) [Compound 267] | ≤ 0.06 | ≤ 0.06 | 2 (≈ 0.977 µM) | 0.5 (≈ 0.244 µM) | 1 (≈ 0.489 µM) | 1 (≈ 0.489 µM) | 0.5 (≈ 0.244 µM) | 0.25 (≈ 0.122 µM) | 0.5 (≈ 0.244 µM) | 0.125 (≈ 0.0611 µM) | 1 (≈ 0.489 µM) | 1 (≈ 0.489 µM) | 1 (≈ 0.489 µM) | 2.8 | ≤ 0.06 | > 64 | 4 (≈ 1.95 µM) | 4 (≈ 1.95 µM) | 16 (≈ 7.82 µM) | > 64 | MIC (Entercoccus faecium 180): 0.25 µg/mL (≈ 0.122 µM); MIC [19]: 4 µg/mL (≈ 1.95 µM); MIC (Entercoccus faecium 2041): 0.25 µg/mL (≈ 0.122 µM); mean geometric MIC, Vancomycin Sensitive Strains [20]: 0.22 µg/mL |
| CNC(CC(C)C)C(=O)NC1C(=O)NC(CC(N)=O)C(=O)NC2C(=O)NC3C(=O)NC(C(=O)NC(C(=O)O)c4cc(O)cc(O)c4-c4cc3ccc4O)C(OC3CC(C)(NCc4ccc(-c5ccc([N+](=O)[O-])cc5)cc4)C(O)C(C)O3)c3ccc(c(Cl)c3)Oc3cc2cc(c3OC2OC(CO)C(O)C(O)C2OC2CC(C)(NCc3ccc(-c4ccc([N+](=O)[O-])cc4)cc3)C(O)C(C)O2)Oc2ccc(cc2Cl)C1O (stereo not drawn) [Compound 263] | ≤ 0.06 | ≤ 0.06 | 1 (≈ 0.496 µM) | 2 (≈ 0.993 µM) | 1 (≈ 0.496 µM) | 0.5 (≈ 0.248 µM) | 0.5 (≈ 0.248 µM) | 0.25 (≈ 0.124 µM) | 1 (≈ 0.496 µM) | ≤ 0.06 | 0.5 (≈ 0.248 µM) | 1 (≈ 0.496 µM) | 1 (≈ 0.496 µM) | 1.7 | ≤ 0.06 | > 64 | 4 (≈ 1.99 µM) | 8 (≈ 3.97 µM) | 16 (≈ 7.94 µM) | 65 (≈ 32.3 µM) | MIC (Entercoccus faecium 180): ≤ 0.06 µg/mL; MIC [19]: 8 µg/mL (≈ 3.97 µM); MIC (Entercoccus faecium 2041): ≤ 0.06 µg/mL; mean geometric MIC, Vancomycin Sensitive Strains [20]: 0.29 µg/mL |
| CC(C)CC(C(=O)NC1C(=O)NC(CC(N)=O)C(=O)NC2C(=O)NC3C(=O)NC(C(=O)NC(C(=O)O)c4cc(O)cc(O)c4-c4cc3ccc4O)C(OC3CC(C)(N)C(O)C(C)O3)c3ccc(c(Cl)c3)Oc3cc2cc(c3OC2OC(CO)C(O)C(O)C2OC2CC(C)(NCc3cc4ccccc4s3)C(O)C(C)O2)Oc2ccc(cc2Cl)C1O)N(C)Cc1cc2ccccc2s1 (stereo not drawn) [Compound 276] | ≤ 0.06 | 0.25 (≈ 0.133 µM) | 1 (≈ 0.531 µM) | 4 (≈ 2.12 µM) | 1 (≈ 0.531 µM) | 1 (≈ 0.531 µM) | 2 (≈ 1.06 µM) | 1 (≈ 0.531 µM) | 1 (≈ 0.531 µM) | 0.25 (≈ 0.133 µM) | 1 (≈ 0.531 µM) | 1 (≈ 0.531 µM) | 2 (≈ 1.06 µM) | 23 | ≤ 0.06 | > 64 | 4 (≈ 2.12 µM) | 4 (≈ 2.12 µM) | 4 (≈ 2.12 µM) | > 64 | MIC (Entercoccus faecium 180): 4 µg/mL (≈ 2.12 µM); MIC [19]: 4 µg/mL (≈ 2.12 µM); MIC (Entercoccus faecium 2041): 1 µg/mL (≈ 0.531 µM); mean geometric MIC, Vancomycin Sensitive Strains [20]: 1.3 µg/mL |
